These results are taken from patent US20240246964A1 (Arbutus Biopharma Corporation, priority 2021, published 2024).

In the experiment the target is human PD-L1 (Homo sapiens (Human), UniProt Q9NZQ7). Description: T cell activation luciferase reporter cell culture system (T Cell Activation Assay). Type of experiment: cell-based. Particulars: luciferase reporter assay; PD-L1 aAPC/CHO-K1 cells with PD-1 effector Jurkat T cells. (In general: In a reporter assay the amount or activity of a reporter protein is the signal.)
Chain of human PD-L1 (Q9NZQ7 19-290): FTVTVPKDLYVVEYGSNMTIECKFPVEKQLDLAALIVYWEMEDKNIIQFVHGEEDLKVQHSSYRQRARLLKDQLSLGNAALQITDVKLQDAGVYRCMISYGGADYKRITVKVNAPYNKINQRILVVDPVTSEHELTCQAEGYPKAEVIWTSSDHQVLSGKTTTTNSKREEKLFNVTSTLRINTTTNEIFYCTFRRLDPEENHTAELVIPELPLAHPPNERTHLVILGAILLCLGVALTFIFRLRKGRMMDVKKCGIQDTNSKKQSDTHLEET
For orientation: EC50 means the concentration needed to bring the measured effect to its halfway point. Low values mean higher potency in that assay, high ones lower potency in that assay. In turn, `COc1nc(-c2ccnc(-c3cccc4c3CC[C@@H]4Nc3nc(OC)c(CNC[C@@H]4CCC(=O)N4)cc3C(F)(F)F)c2Cl)ccc1CNC1CCN(C(C)=O)CC1` [Example 486, (S)-5-((((6-(((S)-4-(5-(((1-Acetylpiperidin-4-yl)amino)methyl)-3′-chloro-6-methoxy-[2,4′-bipyridin]-2′-yl)-2,3-dihydro-1H-inden-1-yl)amino)-2-methoxy-5-(trifluoromethyl)pyridin-3-yl)methyl)amino)methyl)pyrrolidin-2-one] had an EC50 of 114 nM. In other words, the sub-micromolar range. With `COc1cc(-c2nccc(-c3cccc(-c4ccc(CN5CCC(O)CC5)c(OC)n4)c3Cl)c2Cl)ccc1CNC1CCN(C(C)=O)CC1` [Example 487, 1-(4-((4-(3-Chloro-4-(2-chloro-3-(5-((4-hydroxypiperidin-1-yl)methyl)-6-methoxypyridin-2-yl)phenyl)pyridin-2-yl)-2-methoxybenzyl)amino)piperidin-1-yl)ethan-1-one] the figure was 39.9 nM; with `COc1cc(-c2nccc(-c3cccc(-c4ccc(CN[C@H]5CC[C@H](OC)CC5)c(OC)n4)c3Cl)c2Cl)ccc1CNC1CCN(C(C)=O)CC1` [Example 488, 1-(4-((4-(3-Chloro-4-(2-chloro-3-(6-methoxy-5-((((1r,4r)-4-methoxycyclohexyl)amino)methyl)pyridin-2-yl)phenyl)pyridin-2-yl)-2-methoxybenzyl)amino)piperidin-1-yl)ethan-1-one], 34 nM. `COc1cc(-c2nccc(-c3cccc(-c4ccc(CNC5CCN(C(C)=O)CC5)c(OC)n4)c3Cl)c2Cl)ccc1CN1CCC[C@@H](O)C1` [Example 489, (R)-1-(4-(((6-(2-Chloro-3-(3-chloro-2-(4-((3-hydroxypiperidin-1-yl)methyl)-3-methoxyphenyl)pyridin-4-yl)phenyl)-2-methoxypyridin-3-yl)methyl)amino)piperidin-1-yl)ethan-1-one] showed a concentration for a half-maximal effect (EC50) of 28.5 nM.

In turn, `COCC(=O)N1CCC(NCc2ccc(-c3cccc(-c4ccnc(-c5ccc(CN6CC7(CNC(=O)C7)C6)c(OC)c5)c4Cl)c3Cl)nc2OC)CC1` [Example 490, 2-(4-(3-Chloro-4-(2-chloro-3-(6-methoxy-5-(((1-(2-methoxyacetyl)piperidin-4-yl)amino)methyl)pyridin-2-yl)phenyl)pyridin-2-yl)-2-methoxybenzyl)-2,6-diazaspiro[3.4]octan-7-one] had an EC50 of 17.9 nM. The result for `COCC(=O)N1CCC(NCc2ccc(-c3cccc(-c4ccnc(-c5ccc(CN6CC7(C6)CN(C(C)=O)C7)c(OC)c5)c4Cl)c3Cl)nc2OC)CC1` [Example 491, 1-(4-(((6-(3-(2-(4-((6-Acetyl-2,6-diazaspiro[3.3]heptan-2-yl)methyl)-3-methoxyphenyl)-3-chloropyridin-4-yl)-2-chlorophenyl)-2-methoxypyridin-3-yl)methyl)amino)piperidin-1-yl)-2-methoxyethan-1-one] reads 31.8 nM; that for `COc1cc(-c2nccc(-c3cccc(-c4ccc(CNC5CCOCC5)c(OC)n4)c3Cl)c2Cl)ccc1CN1CC2(C1)CN(C(C)=O)C2` [Example 492, 1-(6-(4-(3-chloro-4-(2-chloro-3-(6-methoxy-5-(((tetrahydro-2H-pyran-4-yl)amino)methyl)pyridin-2-yl)phenyl)pyridin-2-yl)-2-methoxybenzyl)-2,6-diazaspiro[3.3]heptan-2-yl)ethan-1-one], 18.5 nM. With `COc1cc(-c2nccc(-c3cccc(-c4ccc(CN5CC6(CNC(=O)C6)C5)c(OC)n4)c3Cl)c2Cl)ccc1CNC1CCOCC1` [Example 495, 2-((6-(2-Chloro-3-(3-chloro-2-(3-methoxy-4-(((tetrahydro-2H-pyran-4-yl)amino)methyl)phenyl)pyridin-4-yl)phenyl)-2-methoxypyridin-3-yl)methyl)-2,6-diazaspiro[3.4]octan-7-one] the figure was 22.8 nM; with `COc1cc(-c2nccc(-c3cccc(-c4ccc(CN5CC6(CNC(=O)C6)C5)c(OC)n4)c3Cl)c2Cl)ccc1CN[C@H]1C[C@](C)(O)C1` [Example 496, 2-((6-(2-Chloro-3-(3-chloro-2-(4-((((1r,3r)-3-hydroxy-3-methylcyclobutyl)amino)methyl)-3-methoxyphenyl)pyridin-4-yl)phenyl)-2-methoxypyridin-3-yl)methyl)-2,6-diazaspiro[3.4]octan-7-one], 29.1 nM. For the compound `COc1cc(-c2nccc(-c3cccc(-c4ccc(CN5CC6(CNC(=O)C6)C5)c(OC)n4)c3Cl)c2Cl)ccc1CN1CC2(CC(O)C2)C1` [Example 497, 2-((6-(2-Chloro-3-(3-chloro-2-(4-((6-hydroxy-2-azaspiro[3.3]heptan-2-yl)methyl)-3-methoxyphenyl)pyridin-4-yl)phenyl)-2-methoxypyridin-3-yl)methyl)-2,6-diazaspiro[3.4]octan-7-one], the EC50 amounted to 30.2 nM. With `COc1cc(-c2nccc(-c3cccc(-c4ccc(CN5CC6(CNC(=O)C6)C5)c(OC)n4)c3Cl)c2Cl)ccc1CN1CC(C)(O)C1` [Example 498, 2-((6-(2-Chloro-3-(3-chloro-2-(4-((3-hydroxy-3-methylazetidin-1-yl)methyl)-3-methoxyphenyl)pyridin-4-yl)phenyl)-2-methoxypyridin-3-yl)methyl)-2,6-diazaspiro[3.4]octan-7-one] the figure was 26.5 nM; with `COc1cc(-c2nccc(-c3cccc(-c4ccc(CN5CC6(CNC(=O)C6)C5)c(OC)n4)c3Cl)c2Cl)ccc1CN[C@H]1CC[C@H](O)CC1` [Example 502, 2-((6-(2-Chloro-3-(3-chloro-2-(4-((((1r,4r)-4-hydroxycyclohexyl)-amino)-methyl)-3-methoxyphenyl)pyridin-4-yl)phenyl)-2-methoxypyridin-3-yl)methyl)-2,6-diazaspiro[3.4]octan-7-one], 28.9 nM; with `COc1cc(-c2nccc(-c3cccc(-c4ccc(CN5CC6(CNC(=O)C6)C5)c(OC)n4)c3Cl)c2Cl)ccc1CN[C@H]1CC[C@@H](O)CC1` [Example 503, 2-((6-(2-Chloro-3-(3-chloro-2-(4-((((1s,4s)-4-hydroxycyclohexyl)-amino)-methyl)-3-methoxyphenyl)pyridin-4-yl)phenyl)-2-methoxypyridin-3-yl)methyl)-2,6-diazaspiro[3.4]octan-7-one], 36.2 nM. With `COc1cc(-c2nccc(-c3cccc(-c4ccc(CNCC5(O)CC5)c(OC)n4)c3Cl)c2Cl)ccc1CNCC1(O)CC1` [Example 504, 1-((((6-(2-Chloro-3-(3-chloro-2-(4-((((1-hydroxycyclopropyl)methyl)amino)methyl)-3-methoxyphenyl)pyridin-4-yl)phenyl)-2-methoxypyridin-3-yl)methyl)amino)methyl)cyclopropan-1-ol] the figure was 36.4 nM. The result for `COc1cc(-c2nccc(-c3cccc(-c4ccc(CNCC(F)F)c(OC)n4)c3Cl)c2Cl)ccc1CNCC(F)F` [Example 505, N-((6-(2-Chloro-3-(3-chloro-2-(4-(((2,2-difluoroethyl)amino)methyl)-3-methoxyphenyl)pyridin-4-yl)phenyl)-2-methoxypyridin-3-yl)methyl)-2,2-difluoroethan-1-amine] reads ≥ 10000 nM; that for `COc1cc(-c2nccc(-c3cccc(-c4ccc(CNC5CCOCC5)c(OC)n4)c3Cl)c2Cl)ccc1CN1CC2(CNC(=O)C2)C1` [Example 506, 2-(4-(3-Chloro-4-(2-chloro-3-(6-methoxy-5-(((tetrahydro-2H-pyran-4-yl)amino)methyl)pyridin-2-yl)phenyl)pyridin-2-yl)-2-methoxybenzyl)-2,6-diazaspiro[3.4]octan-7-one], 25 nM.
